Reference: ChEMBL document CHEMBL1697781, “Assessment of the health effects of chemicals in humans: II. Construction of an adverse effects database for QSAR modeling” (Curr Drug Discov Technol, 2004)

Experiments:
Settings in all cases: human; call rule not given here
Hepatotoxicity [1] = assay: FDA HLAED, alkaline phosphatase increase
Hepatotoxicity [2] = assay: FDA HLAED, lactate dehydrogenase (LDH) increase
Hepatotoxicity [3] = assay: FDA HLAED, gamma-glutamyl transferase (GGT) increase
Hepatotoxicity [4] = assay: FDA HLAED, serum glutamic oxaloacetic transaminase (SGOT) increase
Hepatotoxicity [5] = assay: FDA HLAED, liver enzyme composite activity
Hepatotoxicity [6] = assay: FDA HLAED, serum glutamic pyruvic transaminase (SGPT) increase

SMILES	Alkaline Phosphatase Increase - Activity Score (Hepatotoxicity [1])	Alkaline Phosphatase Increase - Index Value (Hepatotoxicity [1])	Alkaline Phosphatase Increase - Number of Reports (Hepatotoxicity [1])	LDH Increase - Activity Score (Hepatotoxicity [2])	LDH Increase - Index Value (Hepatotoxicity [2])	LDH Increase - Number of Reports (Hepatotoxicity [2])	GGT Increase - Activity Score (Hepatotoxicity [3])	GGT Increase - Index Value (Hepatotoxicity [3])	GGT Increase - Number of Reports (Hepatotoxicity [3])	SGOT Increase - Activity Score (Hepatotoxicity [4])	SGOT Increase - Index Value (Hepatotoxicity [4])	SGOT Increase - Number of Reports (Hepatotoxicity [4])	Composite Activity - Active (Hepatotoxicity [5])	Composite Activity - Marginal (Hepatotoxicity [5])	Composite Activity - Score (Hepatotoxicity [5])	SGPT Increase - Activity Score (Hepatotoxicity [6])	SGPT Increase - Index Value (Hepatotoxicity [6])	SGPT Increase - Number of Reports (Hepatotoxicity [6])	also measured
CC[C@H]1OC(=O)[C@H](C)[C@@H](O[C@H]2C[C@@](C)(OC)[C@@H](O)[C@H](C)O2)[C@H](C)[C@@H](O[C@@H]2O[C@H](C)C[C@H](N(C)C)[C@H]2O)[C@](C)(OC)C[C@@H](C)C(=O)[C@H](C)[C@@H](O)[C@]1(C)O [CLARITHROMYCIN]	Marginally Active	3.1	>= 4	Inactive	1.4	>= 4	Inactive	1.5	>= 4	Marginally Active	3.8	>= 4	0	3	Inactive	Marginally Active	3.3	>= 4	–
C[C@H]1C[C@H]2[C@@H]3CCC4=CC(=O)C=C[C@]4(C)[C@@]3(F)[C@@H](O)C[C@]2(C)[C@@]1(O)C(=O)CCl [CLOBETASOL]	Inactive	0	< 4	Inactive	0	< 4	Inactive	0	< 4	Inactive	0	< 4	0	0	Inactive	Inactive	0	< 4	–
CC(C)/N=c1\cc2n(-c3ccc(Cl)cc3)c3ccccc3nc-2cc1Nc1ccc(Cl)cc1 [CLOFAZIMINE]	Active	76.9	< 4	Inactive	25.6	< 4	Active	51.3	< 4	Active	76.9	< 4	4	0	Active	Active	102.6	>= 4	–
CN(C)CCCN1c2ccccc2CCc2ccc(Cl)cc21 [CLOMIPRAMINE]	Inactive	0	< 4	Inactive	0	< 4	Inactive	0	< 4	Inactive	0	< 4	0	0	Inactive	Inactive	0	< 4	–
CN1CCN(C2=Nc3cc(Cl)ccc3Nc3ccccc32)CC1 [CLOZAPINE]	Active	34.2	>= 4	Active	16.8	>= 4	Active	11.4	>= 4	Active	45.1	>= 4	5	0	Active	Active	42.9	>= 4	–
CC1(C)S[C@@H]2[C@H](NC(=O)C3(N)CCCCC3)C(=O)N2[C@H]1C(=O)O [CYCLACILLIN]	Inactive	0	< 4	Inactive	0	< 4	Inactive	0	< 4	Inactive	0	< 4	0	0	Inactive	Inactive	0	< 4	–
Cc1ccccc1N1CCN(CCc2nnc3n2CCCC3)CC1 [DAPIPRAZOLE]	Inactive	0	< 4	Inactive	0	< 4	Inactive	0	< 4	Inactive	0	< 4	0	0	Inactive	Inactive	0	< 4	–
COc1cccc2c1C(=O)c1c(O)c3c(c(O)c1C2=O)C[C@@](O)(C(C)=O)C[C@@H]3O[C@H]1C[C@H](N)[C@H](O)[C@H](C)O1 [DAUNORUBICIN]	Inactive	0	< 4	Inactive	0	< 4	Inactive	0	< 4	Inactive	0	< 4	0	0	Inactive	Inactive	0	< 4	–
CCN[C@@H](C)Cc1cccc(C(F)(F)F)c1 [DEXFENFLURAMINE]	Inactive	0.2	< 4	Inactive	0.4	< 4	Inactive	0.6	< 4	Inactive	1	>= 4	0	0	Inactive	Inactive	0.6	< 4	–
C[C@@H](CN1CC(=O)NC(=O)C1)N1CC(=O)NC(=O)C1 [DEXRAZOXANE]	Inactive	0	< 4	Inactive	0	< 4	Inactive	0	< 4	Inactive	0	< 4	0	0	Inactive	Inactive	0	< 4	–
C[C@@]12CCCCC[C@@H](Cc3ccc(O)cc31)[C@@H]2N [DEZOCINE]	Inactive	0	< 4	Inactive	0	< 4	Inactive	0	< 4	Inactive	0	< 4	0	0	Inactive	Inactive	0	< 4	–
O=C(O)Cc1ccccc1Nc1c(Cl)cccc1Cl [DICLOFENAC]	Active	9.2	>= 4	Inactive	2	>= 4	Marginally Active	3.8	>= 4	Active	11.4	>= 4	–	–	–	Active	11.1	>= 4	Composite Activity - Active (Hepatotoxicity [5]; Liver): 3; Composite Activity - Marginal (Hepatotoxicity [5]; Liver): 1; Composite Activity - Score (Hepatotoxicity [5]; Liver): Active
